Reference: PubChem BioAssay AID2020 (NMMLSC, 2009)
Active and inactive are the calls of the source.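 How the source made its calls: active means EC50 at or below 30 µM together with a response span of at least a set limit; inactive means the rest.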

Molecular target: Cell division control protein 42 homolog (Homo sapiens) (UniProt P60953)
Assay: fluorescent GTP binding blockers of active-mutant Cdc42 – biochemical, pyrazoline analogs, multiplex bead flow cytometry, Ki, SAR follow-up (AID 2020)
Conditions: bead-based flow cytometry, Bodipy-FL-GTP binding; for Ki: measured here: Ki calculated from EC50

Cell division control protein 42 homolog (Homo sapiens), sequence (P60953 whole entry, looked up, change not shown): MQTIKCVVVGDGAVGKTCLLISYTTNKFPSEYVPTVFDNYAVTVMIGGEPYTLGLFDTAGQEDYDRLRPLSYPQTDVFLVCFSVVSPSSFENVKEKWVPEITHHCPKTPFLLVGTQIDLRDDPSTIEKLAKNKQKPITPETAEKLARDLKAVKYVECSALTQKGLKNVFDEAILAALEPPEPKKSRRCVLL

SMILES	EC50	Ki [µM]
COc1ccc(C2CC(c3cccc(C(F)(F)F)c3)=NN2c2ccc(S(N)(=O)=O)cc2)cc1 (stereo not given)	> 30 µM (inactive)	
Cc1cccc(N2N=C(c3ccccc3)CC2c2ccccc2)c1 (stereo not given)	> 30 µM (inactive)	
COc1ccc(C2CC(c3cccc(Br)c3)=NN2c2ccc(S(N)(=O)=O)cc2)cc1 (stereo not given)	inactive	0.32
NS(=O)(=O)c1ccc(N2N=C(c3ccc(Cl)cc3)CC2c2ccccc2)cc1 (stereo not given)	7.11 µM	1.1
CN(C)c1ccc(C2CC(c3ccc(Br)cc3)=NN2c2ccccc2)cc1 (stereo not given)	> 30 µM (inactive)	
CN(C)c1ccc(C2CC(c3ccccc3)=NN2c2ccccc2)cc1 (stereo not given)	inactive	0.01
NS(=O)(=O)c1ccc(N2N=C(c3ccc(Br)cc3)CC2c2ccc(F)cc2)cc1 (stereo not given)	> 30 µM (inactive)	
COc1ccc(C2CC(c3ccc(F)cc3)=NN2c2ccc(S(N)(=O)=O)cc2)cc1 (stereo not given)	5.47 µM	0.85
COc1ccc(C2CC(c3ccccc3C(F)(F)F)=NN2c2ccc(S(N)(=O)=O)cc2)cc1 (stereo not given)	> 30 µM (inactive)	
FC(F)(F)c1cccc(N2N=C(c3ccc(Cl)cc3)CC2c2ccccc2Cl)c1 (stereo not given)	> 30 µM (inactive)	
O=S(=O)(c1ccc(N2N=C(c3ccc(Br)cc3)CC2c2ccccc2)cc1)C(F)F (stereo not given)	> 30 µM (inactive)	
O=[N+]([O-])c1ccc(N2N=C(c3ccccc3)CC2c2ccccc2)cc1 (stereo not given)	> 30 µM (inactive)	
COc1ccc(C2=NN(c3ccc(S(N)(=O)=O)cc3)C(c3ccc(OC)cc3)C2)cc1 (stereo not given)	inactive	0.39
COc1ccc(C2CC(c3ccc(Br)cc3)=NN2c2ccc(S(N)(=O)=O)cc2)cc1 (stereo not given)	inactive	0.44
COc1ccc(C2CC(c3cccnc3)=NN2c2ccc(S(N)(=O)=O)cc2)cc1 (stereo not given)	> 30 µM (inactive)	
COc1ccc(C2CC(c3ccccc3F)=NN2c2ccc(S(N)(=O)=O)cc2)cc1 (stereo not given)	3.57 µM	0.55
CN(C)c1ccc(C2CC(c3ccccc3)=NN2c2ccc([N+](=O)[O-])cc2)cc1 (stereo not given)	> 30 µM (inactive)	
COc1ccc(C2CC(c3ccccc3)=NN2c2ccc(Cl)c(C(=O)O)c2)cc1 (stereo not given)	> 30 µM (inactive)	
COc1ccc(C2CC(c3ccccc3Cl)=NN2c2ccc(S(N)(=O)=O)cc2)cc1 (stereo not given)	2.88 µM	0.45
FC(F)(F)c1ccccc1C1CC(c2ccc(Br)cc2)=NN1c1ccccc1 (stereo not given)	> 30 µM (inactive)	
CCc1ccc(C2=NN(c3ccc(S(N)(=O)=O)cc3)C(c3ccc(F)cc3)C2)cc1 (stereo not given)	inactive	
NS(=O)(=O)c1ccc(N2N=C(c3ccccc3)CC2c2ccccc2)cc1 (stereo not given)	16.8 µM	2.6
COc1ccc(C2CC(c3ccccc3C)=NN2c2ccc(S(N)(=O)=O)cc2)cc1 (stereo not given)	inactive	0.36
Cc1ccccc1N1N=C(c2ccccc2)CC1c1cccc([N+](=O)[O-])c1 (stereo not given)	> 30 µM (inactive)	
COc1ccc(C2CC(C)=NN2c2ccc(S(N)(=O)=O)cc2)cc1 (stereo not given)	> 30 µM (inactive)	
NS(=O)(=O)c1ccc(N2N=C(c3ccccc3)CC2c2cccc(Br)c2)cc1 (stereo not given)	3.67 µM	0.57
Cc1ccccc1N1N=C(c2ccccc2)CC1c1ccc(N(C)C)cc1 (stereo not given)	> 30 µM (inactive)	
NS(=O)(=O)c1ccc(N2N=C(c3ccccc3)CC2c2ccc(Cl)cc2)cc1 (stereo not given)	3.64 µM	0.56
